# Assay results: patent US20040109897A1, “Free flowing solid antimicrobial composition” (priority 2002, published 2004)
# How the values were obtained:
# [1] = Flowability of OPA after one hour on high-speed rollers; assay type: physicochemical; conditions: granular OPA in capped 100 ml jar, no additive
# Protocol: Ortho-phthalic aldehyde (13.04 g, granular) was placed in a 100 ml jar. The jar was tightly capped and placed on high-speed rollers for one hour. […] The lid was removed and the sample was placed in a humidity oven set at 40° C. and 90% RH (relative humidity). After 4 hours of exposure the sample had no flow.
# Ortho-phthalic aldehyde (10.04 g, granular) was placed in a 100 ml jar. The jar was tightly capped and placed on high-speed rollers for one hour. […] The lid was removed and the sample was placed in a humidity oven set at 30° C. and 90% RH (relative humidity).
# Ortho-phthalic addehyde (12.04 g, granular) was placed in a 100 ml jar. The jar was tightly capped and placed on high-speed rollers for one hour. […] The lid was removed and the sample was placed in a humidity oven set at 40° C. and 70% RH (relative humidity).
# [2] = Free flow preservation (caking) of OPA formulations on exposure to temperature and humidity; assay type: physicochemical; conditions: for Caking tendency: 0 wt. % of anti-caking agent; for Time to caking: untreated
# Excerpt: Samples of OPA containing 0.01-0.1% water were ground and mixed with various additives at levels of 0.2% to 5%. The samples were mixed on high-speed rollers for one hour followed by exposure to various temperatures and levels of humidity. The samples were examined at various time intervals for flow properties. Complete caking was defined as all sample stuck together in one solid block. For ease of interpretation and comparison, the following notation was used: 1) Formulations that caked in under two weeks were assigned one star (*); 2). Formulations that caked in two to four weeks were assigned two stars; 3) Formulations that caked in four to eight weeks were assigned three stars; 4) Formulations stable (flowable) over eight weeks were assigned four stars.
compound,measurement,setting,value
"O=Cc1ccccc1C=O [Control, ortho-phthalic aldehyde]",Flowability after one hour on high-speed rollers,[1],very poor flowability
same,Caking tendency,[2]; 22.5° C. and 65% RH,* (Formulations that caked in under two weeks were assigned one star (*))
same,Caking tendency,[2]; 30° C. and 90% RH,* (Formulations that caked in under two weeks were assigned one star (*))
same,Time to caking,[2]; 30° C. and 90% RH,one day
same,Caking tendency,[2]; 40° C. and 70% RH,* (Formulations that caked in under two weeks were assigned one star (*))
same,Caking tendency,[2]; 40° C. and 90% RH,* (Formulations that caked in under two weeks were assigned one star (*))
same,Time to caking,[2]; 40° C. and 90% RH,half a day
same,Flow after exposure,[2]; 4 hours at 40° C. and 70% RH,no free flow
same,Flow after exposure,[2]; 4 hours at 40° C. and 90% RH,no flow
same,Flow after exposure,[2]; 24 hours at 30° C. and 90% RH,no free flow
